Measured values from US10336707B2, “Heterocyclic derivatives modulating activity of certain protein kinases” (EUDENDRON S.R.L., priority 2014, dated 2019).

Biological target: T1, DDR2 T654M (Homo sapiens, UniProt Q16832, T654M)
T1 construct: either as full-length or enzymatically active fragments; purchased ProQinase GmbH (Freiburg, Germany)
T1 sequence (Q16832 22-855 T654M): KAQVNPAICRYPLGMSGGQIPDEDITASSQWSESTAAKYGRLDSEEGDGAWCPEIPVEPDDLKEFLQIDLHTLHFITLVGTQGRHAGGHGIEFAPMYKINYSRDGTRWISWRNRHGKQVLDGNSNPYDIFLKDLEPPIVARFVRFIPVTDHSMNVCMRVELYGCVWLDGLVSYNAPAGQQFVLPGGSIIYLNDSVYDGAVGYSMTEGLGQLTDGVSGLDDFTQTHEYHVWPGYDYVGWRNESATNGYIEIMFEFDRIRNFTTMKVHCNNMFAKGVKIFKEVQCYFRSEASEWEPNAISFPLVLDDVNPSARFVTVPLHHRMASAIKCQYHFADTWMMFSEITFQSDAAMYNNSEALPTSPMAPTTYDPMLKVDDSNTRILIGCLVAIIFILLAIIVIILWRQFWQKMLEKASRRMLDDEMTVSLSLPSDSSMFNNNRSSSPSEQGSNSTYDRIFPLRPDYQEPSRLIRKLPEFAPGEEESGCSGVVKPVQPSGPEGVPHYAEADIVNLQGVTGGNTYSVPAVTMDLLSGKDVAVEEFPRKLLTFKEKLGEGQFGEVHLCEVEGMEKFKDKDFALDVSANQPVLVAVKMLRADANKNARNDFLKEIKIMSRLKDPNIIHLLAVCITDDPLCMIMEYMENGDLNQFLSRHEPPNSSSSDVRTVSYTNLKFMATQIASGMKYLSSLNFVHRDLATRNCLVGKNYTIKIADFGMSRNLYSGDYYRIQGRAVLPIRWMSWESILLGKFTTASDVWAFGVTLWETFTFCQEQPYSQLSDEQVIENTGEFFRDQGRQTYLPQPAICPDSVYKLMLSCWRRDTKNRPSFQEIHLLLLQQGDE
Assay: Radiometric protein kinase assay (33PanQuinase Activity Assay), DDR2 T654M
Type: biochemical
Details: ATP 0.3 μM
Method: A proprietary radiometric protein kinase assay (33PanQuinase® Activity Assay) developed by ProQuinase GmbH (Freiburg, Germany) was used for measuring the kinase activity of selected protein kinases. All assays were performed in FlashPlates™ wells 96 Perkin Elmer (Boston, Mass., USA) in a reaction volume of 50 μl. The reaction mixture was obtained in 4 steps in the following order: • 1. 10 μl of a solution of non-radioactive ATP in water; • 2. 25 μl of assay buffer/[γ-^33P]-ATP mixture • 3. 5 μl of test sample in 10% DMSO • 4. 10 μl of enzyme/substrate mixture
All protein kinases provided by ProQinase were expressed in Sf9 insect cells or in E. coli as recombinant GST-fusion proteins or His-tagged proteins, either as full-length or enzymatically active fragments. […] Kinases from external vendors (CAR=Carna Biosciences Inc.; INV=Life Technologies (Invitrogen Corporation); MIL=Merck-Millipore (Millipore Corporation), were expressed, purified and quality-controlled by virtue of the vendors readings.
A stock solution of compound of formula (I) was diluted to 5×10-04M/100% DMSO. […] Incorporation of 33Pi (counting of “cpm”) was determined with a microplate scintillation counter (Microbeta, Wallac). […]
Based on each 10 corresponding residual activities, IC50 values were calculated using Prism 5.04 for Windows (Graphpad, San Diego, Calif.). […]

CN1CCN(c2ccc(C(=O)Nc3n[nH]c4cc(-c5ccc(O)cc5)c(Cc5cc(F)cc(F)c5)cc34)c(NC3CCOCC3)c2)CC1 [Example 3, N-[5-[(3,5-difluorophenyl)methyl]-6-(4-hydroxyphenyl)-1H-indazol-3-yl]-4-(4-methylpiperazin-1-yl)-2-(tetrahydropyran-4-ylamino)benzamide] gave an IC50 of 84 nM.
